Data as given in patent US6274588A, “4-phenyl-pyrimidine derivatives” (Hoffmann-La Roche Inc., priority 1999, dated 2001).

Target: T1, human NK1 receptors (Homo sapiens, UniProt P25103)
T1 construct: expressed in transfected cells; host or cells: CHO cells (Semliki virus expression system), membrane suspension
Assay: NK1 receptor binding assay, displacement of [3H]substance P
Conditions: human NK1 receptors in CHO cells (Semliki virus expression system), [3H]substance P 0.6 nM, 60 min at room temperature; for Ki: read-out: affinity to the NK-1 receptor, given as pKi (converted)
Experimental: The affinity of test compounds for the NK1 receptor was evaluated at human NK1 receptors in CHO cells infected with the human NK1 receptor (using the Semliki virus expression system) and radiolabelled with [^3 H]substance P (final concentration 0.6 nM). Binding assays were performed in HEPES buffer (50 mM, pH 7.4) containing BSA (0.04 %) leupeptin (8 μg/ml), MnCl2 (3 mM) and phosphoramidon (2 μM). Binding assays consisted of 250 μl of membrane suspension (1.25×10^5 cells/assay tube), […] of buffer of displacing agent and 125 μl of [^3 H]substance P. Displacement curves were determined with at least seven concentrations of the compound. The assay tubes were incubated for 60 min at room temperature after which time the tube contents were rapidly filtered under vacuum through GF/C filters presoaked for 60 min with PEI (0.3%) with 2×2 ml washed of HEPES buffer (50 mM, pH 7.4). The radioactivity retained on the filters was measured by scintillation counting. All assays were performed in triplicate in at least 2 separate experiments.

T1 sequence (P25103 whole entry): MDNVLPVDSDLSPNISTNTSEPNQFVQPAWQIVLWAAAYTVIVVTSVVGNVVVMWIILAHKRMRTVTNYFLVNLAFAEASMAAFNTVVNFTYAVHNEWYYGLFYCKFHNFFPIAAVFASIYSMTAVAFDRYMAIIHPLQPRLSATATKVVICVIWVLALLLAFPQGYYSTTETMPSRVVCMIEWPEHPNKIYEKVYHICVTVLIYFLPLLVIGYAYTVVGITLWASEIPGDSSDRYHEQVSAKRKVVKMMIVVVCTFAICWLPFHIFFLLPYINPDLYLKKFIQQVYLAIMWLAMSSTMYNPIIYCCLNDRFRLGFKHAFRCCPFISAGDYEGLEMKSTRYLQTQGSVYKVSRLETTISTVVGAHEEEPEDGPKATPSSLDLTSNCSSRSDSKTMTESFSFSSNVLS

Row | Compound | Ki | affinity to the NK-1 receptor, given as pKi
1 | CN(C)CCOc1ncc(C(=O)N(C)Cc2cc(C(F)(F)F)cc(C(F)(F)F)c2)c(-c2ccccc2Cl)n1 [Example 52, 4-(2-Chloro-phenyl)-2-(2-dimethylamino-ethoxy)-pyrimidine-5-carboxylic Acid (3,5-bis-trifluoromethyl-benzyl)-methyl-amide] | 3.55 nM | –
2 | 4-(2-Chloro-phenyl)-2-(3-dimethylamino-ethoxy)-pyrimidine-5-carboxylic acid(3,5-bis-trifluoromethyl-benzyl)-methyl-amide | – | 8.11
3 | CN(C)CCCOc1ncc(C(=O)N(C)Cc2cc(C(F)(F)F)cc(C(F)(F)F)c2)c(-c2ccccc2Cl)n1 [Example 53, 4-(2-Chloro-phenyl)-2-(3-dimethylamino-propoxy)-pyrimidine-5-carboxylic Acid (3,5-bis-trifluoromethyl-benzyl)-methyl-amide] | 1.74 nM | –

Continued, values first:

Row | Ki | affinity to the NK-1 receptor, given as pKi | Compound
4 | 2.88 nM | – | CN1CCN(c2ncc(C(=O)N(C)Cc3cc(C(F)(F)F)cc(C(F)(F)F)c3)c(-c3cccc4ccccc34)n2)CC1 [Example 88, 2-(4-Methyl-piperazin-1-yl)-4-naphthalen-1-yl-pyrimidine-5-carboxylic Acid (3,5-bis-trifluoromethyl-benzyl)-methyl-amide]
5 | 0.724 nM | – | Cc1cc(F)ccc1-c1nc(N2CCNCC2)ncc1C(=O)N(C)Cc1cc(C(F)(F)F)cc(C(F)(F)F)c1 [Example 84, 4-(4-Fluor-2-methyl-phenyl)-2-piperazin-1-yl-pyrimidine-5-carboxylic Acid (3,5-bis-trifluoromethyl-benzyl)-methyl-amide]
